Converted amounts (≈) assume the structure as drawn. Read-outs that look alike come from different tables or passages of the source.
Assays:
[1] = system: L. major IR‐173 promastigotes; test: Antipromastigote assay (resazurin); assay type: cell-based; conditions: Leishmania major, read-out: Antipromastigote activity, IC50 ±SD, IR‐173
Experimental: (§1) Antipromastigote assay: The antipromastigote activity of synthesized compounds was evaluated as described previously by […] al.[47] using L. donovani 9515 (MHOM/IN/95/9515) and L. major IR-173 (MHOM/IR/-173). […] Al dri c h) […] The prom astigotes were […] 25 °C. […] Therm ofisher Scientific) in the presence of: […] com pounds for IC50 determination. […] blank. […] Em etine served as the standard cytotoxic drug. […] References […]

[2] = system: L. donovani 9515 promastigotes; test: Antipromastigote assay (resazurin); assay type: cell-based, Leishmania donovani; conditions: for IC50: Leishmania donovani, read-out: Antipromastigote activity, IC50 ±SD, 9515
Experimental: as §1

[3] = system: L. major IR‐173 amastigotes; test: Anti‐amastigote assay, intramacrophage (THP‐1), resazurin; assay type: cell-based, Leishmania major; conditions: for IC50: read-out: Anti‐amastigote activity, IC50 ±SD, IR‐173; for Selectivity index SI1: L. major IR‐173: IC50 HEK‐293/IC50 amastigote; for Selectivity index SI3: L. major IR‐173: IC50 THP‐1/IC50 amastigote; for Specificity index SpI1: L. major IR‐173: IC50 promastigote/IC50 amastigote
Experimental: (§2) For the anti‐amastigote assay, differentiated plates were carefully washed with PBS, followed by the addition of 200 μL of stationary phase promastigotes in RPMI 1640 medium with 2 % FBS. An MOI of 30 : 1 was used for all three Leishmania strains. […] The treated plates were incubated for 72 hours. After incubation, the plates were gently washed three times with PBS to remove any remaining extracellular parasites. The wells were then treated with 20 μL of 0.05 % sodium dodecyl sulphate in PBS for 30 seconds to lyse the host macrophages. Lysis was terminated by adding 180 μL promastigote growth medium with 10 % FBS. […] Absorbance measurements, calculations and IC50 determinations were performed as described for the antipromastigote assay (Supporting Information).

[4] = system: L. donovani 9515 amastigotes; test: as above; assay type: cell-based, Leishmania donovani; conditions: for IC50: Leishmania donovani, THP-1, L. donovani 9515 intramacrophage amastigotes, read-out: Anti‐amastigote activity, IC50 ±SD, 9515; for fold selective antiparasitic action against L. donovani amastigote in the presence of mammalian cells: HEK‐293 and THP‐1; for fold higher potency than the NF antibiotics: L. donovani amastigote; for fold more specificity for donovani amastigote than AMB: comparison of SpI2 values vs. AMB 0.4; for Selectivity index SI2: L. donovani 9515: IC50 HEK‐293/IC50 amastigote; for Specificity index SpI2: L. donovani 9515: IC50 promastigote/IC50 amastigote; for Selectivity index SI4: L. donovani 9515: IC50 THP‐1/IC50 amastigote
Experimental: as §2

[5] = Macrophage toxicity, resazurin assay; assay type: cell-based; conditions: human, differentiated THP‐1 macrophages, read-out: Cytotoxicity, THP‐1, IC50±SD
Experimental: Macrophage toxicity: Toxicity of the compounds on the differentiated host THP‐1 cells were also evaluated. As mentioned, duplicate plates of differentiated THP‐1 cells were prepared during the anti‐amastigote assay. These plates were incubated for 72 hours to differentiate, instead of replacing the growth medium with parasite‐containing medium after 48 hours. […] Blanks were growth medium without cells. The treated plates were incubated for 72 hours, followed by the addition of 50 μL of resazurin solution (0.01 % in PBS) to each well and 24‐hour incubation.

[6] = Basal cytotoxicity, resazurin assay; conditions: human
HEK‐293 cells = test: Basal cytotoxicity, resazurin assay; conditions: read-out: Cytotoxicity, HEK‐293, IC50±SD; HEK‐293 cells, resazurin
in vitro = conditions: human, Cytotoxicity, HEK‐293, IC50±SD
[7] = cited from earlier work
[8] = during therapy ref 19; cited from earlier work
[9] = Leishmania major, THP-1, L. major IR‐173 intramacrophage amastigotes
[10] = differentiated THP-1 cells (macrophages)
[11] = HEK-293 cells (ATCC CRL 1573), Cytotoxicity, HEK‐293, IC50±SD, HEK‐293 cells, resazurin
[12] = L. major IR‐173 intramacrophage amastigotes

| Compound | IC50 [1] [µM] | IC50 [2] [µM] | IC50 [3, 9] [µM] | IC50 [4] [µM] | IC50 at 72 h [5, 10] [µM] | IC50 [6, 11] [µM] | Selectivity index SI4 [4] | other results |
| --- | --- | --- | --- | --- | --- | --- | --- | --- |
| C[C@@H]1[C@H](O)[C@@H](C)/C=C/C=C/C=C/C=C/C=C/C=C/C=C/[C@H](O[C@@H]2O[C@H](C)[C@@H](O)[C@H](N)[C@@H]2O)C[C@@H]2O[C@](O)(C[C@@H](O)C[C@@H](O)[C@H](O)CC[C@@H](O)C[C@@H](O)CC(=O)O[C@H]1C)C[C@H](O)[C@H]2C(=O)O [AMB, amphotericin B, reference compound] | 0.03 ± 0.01 | 0.02 | 0.03 | 0.05 | – | – | – | – |
| C#CCN1C(=O)CN(/N=C/c2ccc([N+](=O)[O-])o2)C1=O [Compound 1] | 0.51 ± 0.05 | – | – | – | 99.94 ± 0.09 | – | – | fold selective antiparasitic action against L. donovani amastigote in the presence of mammalian cells [4]: more than 100 fold; fold higher potency than the NF antibiotics [4]: up to 30 fold; fold more specificity for donovani amastigote than AMB [4]: 20 fold |
| CCCCCn1cc(CN2C(=O)CN(/N=C/c3ccc([N+](=O)[O-])o3)C2=O)nn1 [Compound 2] | 0.09 | – | – | – | > 100 | > 100 | – | – |
| CCCCCCn1cc(CN2C(=O)CN(/N=C/c3ccc([N+](=O)[O-])o3)C2=O)nn1 [Compound 3] | 0.48 ± 0.02 | – | – | – | – | 17.9 ± 1.3 | – | – |
| CCCCCCCn1cc(CN2C(=O)CN(/N=C/c3ccc([N+](=O)[O-])o3)C2=O)nn1 [Compound 4] | 6.85 ± 0.44 | 0.18 ± 0.05 | – | – | > 100 | > 100 | – | fold selective antiparasitic action against L. donovani amastigote in the presence of mammalian cells [4]: more than 100 fold; fold higher potency than the NF antibiotics [4]: up to 30 fold |
| CCCCCCCCn1cc(CN2C(=O)CN(/N=C/c3ccc([N+](=O)[O-])o3)C2=O)nn1 [Compound 5] | 0.27 ± 0.02 | – | – | – | – | 31.9 ± 3.55 | – | – |
| CCCCCCCCCn1cc(CN2C(=O)CN(/N=C/c3ccc([N+](=O)[O-])o3)C2=O)nn1 [Compound 6] | 6.51 ± 1.13 | 4.68 ± 0.32 | – | – | > 100 | 43.8 ± 4.13 | – | Selectivity index SI2 [4]: 12; Specificity index SpI2 [4]: 1.3; fold more specificity for donovani amastigote than AMB [4]: 3 fold |
| CCCCCCCCCCn1cc(CN2C(=O)CN(/N=C/c3ccc([N+](=O)[O-])o3)C2=O)nn1 [Compound 7] | 0.34 ± 0.02 | – | < 10 | 6.17 ± 0.47 | > 100 | 67.1 ± 5.22 | > 16 | Antipromastigote activity, IC50 ±SD, 9515 [2]: inactive; Selectivity index SI1 [3]: 10; Selectivity index SI3 [3]: > 15; IC50 [3, 12]: 6.72 µM; Selectivity index SI2 [4]: 11 |
| CCCCCCCCCCCn1cc(CN2C(=O)CN(/N=C/c3ccc([N+](=O)[O-])o3)C2=O)nn1 [Compound 8] | 1.24 ± 0.13 | 1.6 ± 0.08 | – | 4.49 | > 100 | 20.3 ± 3.15 | > 22 | Selectivity index SI2 [4]: 5; Specificity index SpI2 [4]: 0.4 |
| CCCCCCCCCCCCn1cc(CN2C(=O)CN(/N=C/c3ccc([N+](=O)[O-])o3)C2=O)nn1 [Compound 9] | 0.38 ± 0.01 | – | – | – | > 100 | – | – | – |
| O=C1CN(/N=C/c2ccc([N+](=O)[O-])o2)C(=O)N1Cc1cn(CCc2ccc([N+](=O)[O-])cc2)nn1 [Compound 10] | 0.17 | – | – | – | – | – | – | IC50 at 72 h [5]: > 100 µM; IC50 [6]: 43.7 ± 3.37 µM |
| O=C1CN(/N=C/c2ccc([N+](=O)[O-])o2)C(=O)N1Cc1cn(Cc2ccccc2)nn1 [Compound 11] | 0.68 ± 0.13 | – | – | – | – | 21 ± 3.25 | – | – |
| Cc1ccc(Cn2cc(CN3C(=O)CN(/N=C/c4ccc([N+](=O)[O-])o4)C3=O)nn2)cc1 [Compound 12] | 0.34 ± 0.11 | – | – | – | – | 41.8 ± 1.21 | – | – |
| CC(C)c1ccc(Cn2cc(CN3C(=O)CN(/N=C/c4ccc([N+](=O)[O-])o4)C3=O)nn2)cc1 [Compound 13] | 0.57 ± 0.01 | – | – | 9.13 | > 100 | < 10 | > 11 | Antipromastigote activity, IC50 ±SD, 9515 [2]: inactive; Selectivity index SI2 [4]: 1; IC50 (HEK‐293 cells): 7.27 ± 0.93 µM |
| CC(C)(C)c1ccc(Cn2cc(CN3C(=O)CN(/N=C/c4ccc([N+](=O)[O-])o4)C3=O)nn2)cc1 [Compound 14] | 0.45 ± 0.1 | – | – | 1.16 ± 0.02 | > 100 | 23.2 ± 2.77 | > 86 | Antipromastigote activity, IC50 ±SD, 9515 [2]: inactive; Selectivity index SI2 [4]: 20 |
| O=C1CN(/N=C/c2ccc([N+](=O)[O-])o2)C(=O)N1Cc1cn(Cc2ccc(Br)cc2)nn1 [Compound 15] | 0.5 ± 0.03 | 7.59 ± 0.56 | 5.14 ± 0.67 | – | > 100 | 32.7 ± 4.19 | – | Selectivity index SI1 [3]: 6; Selectivity index SI3 [3]: > 19; Specificity index SpI1 [3]: 0.1 |
| O=C1CN(/N=C/c2ccc([N+](=O)[O-])o2)C(=O)N1Cc1cn(Cc2ccc(Br)cc2F)nn1 [Compound 16] | 0.19 ± 0.01 | – | < 10 | 9.21 | 55.7 ± 1.17 | 14.4 ± 0.84 | 6 | Selectivity index SI3 [3]: 9; Specificity index SpI1 [3]: 0.5; IC50 [3, 12]: 6.42 ± 0.38 µM; Selectivity index SI2 [4]: 2 |
| O=C1CN(/N=C/c2ccc([N+](=O)[O-])o2)C(=O)N1Cc1cn(Cc2ccc(F)cc2)nn1 [Compound 17] | 1.05 ± 0.07 | – | – | – | – | 48.4 ± 1.88 | – | – |
| O=C1CN(/N=C/c2ccc([N+](=O)[O-])o2)C(=O)N1Cc1cn(Cc2ccc([N+](=O)[O-])cc2)nn1 [Compound 18] | 0.38 | – | – | – | – | – | – | IC50 [6]: 60.2 ± 2.29 µM |
| O=C1CN(/N=C/c2ccc([N+](=O)[O-])o2)C(=O)N1Cc1cn(Cc2cccc(Br)c2)nn1 [Compound 19] | 0.48 | 1.75 ± 0.11 | – | – | – | 12.6 ± 0.46 | – | – |
| O=C1CN(/N=C/c2ccc([N+](=O)[O-])o2)C(=O)N1Cc1cn(Cc2cccc(C(F)(F)F)c2)nn1 [Compound 20] | 0.13 ± 0.02 | – | – | – | – | 15.8 ± 3.69 | – | – |
| CC[C@H]1CN2CCc3cc(OC)c(OC)cc3[C@@H]2C[C@@H]1C[C@H]1NCCc2cc(OC)c(OC)cc21 [EM, Emetine, reference compound] | – | – | – | – | – | 0.01 | – | – |
| O=C1OCCN1/N=C/c1ccc([N+](=O)[O-])o1 [FZD, furazolidone, reference compound] | 0.37 ± 0.02 | 0.57 ± 0.05 | 2.8 ± 0.5 | 4.11 ± 0.78 | – | – | – | – |
| O=C1CN(/N=C/c2ccc([N+](=O)[O-])o2)C(=O)N1 [NFT, nitrofurantoin, reference compound] | > 10 | > 10 | > 10 | 9.92 ± 0.11 | > 100 | – | > 10 | IC50 (in vitro): > 100 µM; solubility in DMF ([7]; DMF): 50 mg/mL (≈ 210 mM); solubility in DMSO ([7]; DMSO): 25 mg/mL (≈ 105 mM); solubility in water ([7]; water ref 26): 0.19 mg/mL (≈ 0.798 mM); excreted unchanged [8]: 33% |
| O=C(N/N=C/c1ccc([N+](=O)[O-])o1)c1ccc(O)cc1 [NFX, nifuroxazide, reference compound] | > 10 | 4.48 ± 0.1 | > 10 | 7.29 ± 0.39 | > 100 | – | > 14 | Specificity index SpI2 [4]: 0.6; IC50 (in vitro): > 100 µM |
| NC(=O)N/N=C/c1ccc([N+](=O)[O-])o1 [NFZ, nitrofurazone, reference compound] | 1.22 ± 0.03 | 1.82 ± 0.03 | 5.75 ± 0.75 | 4.94 ± 0.61 | > 100 | > 100 | > 20 | Selectivity index SI3 [3]: > 17; Specificity index SpI1 [3]: 0.2; Specificity index SpI2 [4]: 0.4 |

Source: article PMC9322565 (Chemmedchem, 2022)
